Measurements taken from patent publication US12642779B1, “Albuterol aerosol suspension formulation for oral inhalation with high amount of green propellant hydrofluoroolefin (HFO) and free of co-solvent” (Amphastar Pharmaceuticals, Inc., priority 2025, dated 2026).
Where two headings read alike, the source gives them in different places.

Legend:
[1] = cited from earlier work
[2] = Surfactant solubility in HFO-1234ze (E) propellant; assay type: physicochemical

Molecule | Liquid Density at 20° C. [1] | Vapor Pressure at 20° C. [1] | Viscosity at 20° C. [1] | Solubility of surfactant in HFO-1234ze (E) [2] | also measured
FCC(F)(F)F [HFA-134a, 1,1,1,2-Tetrafluoroethane] | 1.21 g/mL | 83.0 psi | 0.20 cP | – | Water solubility ([1]; at 25° C.): 1100 at 25 °C ppm
FC(C(F)(F)F)C(F)(F)F [HFA-227, 1,1,1,2,3,3,3-Heptafluoropropane] | 1.41 g/mL | 56.6 psi | 0.26 cP | – | Water solubility ([1]; at 25° C.): 610 at 25 °C ppm
F/C=C/C(F)(F)F [HFO-1234ze(E), Trans-1,3,3,3-Tetrafluoropropene] | 1.19 g/mL | 46.4 psi | 0.19 cP | – | Water solubility ([1]; at 20° C.): 225 at 20 °C ppm
polyethylene glycol 1000 [PEG 1000] | – | – | – | exhibited certain solubility in HFO-1234ze (E) and showed homogenous phase | –
polyoxyethylene (20) sorbitan monolaurate [polysorbate 20] | – | – | – | – | Solubility of surfactant in HFO-1234ze (E) ([2]; in HFO-1234ze (E) propellant): exhibited certain solubility in HFO-1234ze (E) and showed homogenous phase
polyoxyethylene (20) sorbitan monooleate [polysorbate 80] | – | – | – | exhibited certain solubility in HFO-1234ze (E) and showed homogenous phase | –
polyvinylpyrrolidone K25 [PVP K25] | – | – | – | exhibited certain solubility in HFO-1234ze (E) and showed homogenous phase | –
sorbitan trioleate [span 85] | – | – | – | exhibited certain solubility in HFO-1234ze (E) and showed homogenous phase | –
